This passage reports IC50 and melting point results from US20140142094A1, “KINASE INHIBITORS” (ICAHN SCHOOL OF MEDICINE AT MOUNT SINAI, priority 2011, published 2014).

In series [1] the test system is K562 (chronic myelogenous leukemia; leukemia cell line +ve for Bcr-Abl). As to the kind of experiment: Cytotoxicity on K562 cancer cell line. The format is cell-based. The settings on record: Homo sapiens; K562 cells, 96 h treatment. The procedure: (§1) The effect of the compounds described herein on tumor cells was determined by the assay described by Latham et al., Oncogene 12:827-837 (1996). Tumor cells K562 (chronic myelogenous leukemia; leukemia cell line +ve for Bcr-Abl) or DU145 (prostate cancer) were plated in 12-well dishes at a cell density of 2.5×10^4 cells per well. The plated cells were treated 24h. later with a DMSO solution of a compound as described herein at multiple concentrations ranging from 0.01 μM to 100 μM. The plates were examined 96 h. later under an inverted microscope, Olympus CK-2 using a 10× objective, and compound activity was noted by physical observation. When necessary, the total number of viable cells was determined by trypsinizing the wells and counting the number of viable cells, as determined by trypan blue exclusion, using a hemacytometer.

The subject of series [2] is DU145 (prostate cancer). The series can be described thus: Cytotoxicity on DU145 cancer cell line. The format is cell-based. The settings on record: Homo sapiens, DU-145; DU145 cells, 96 h treatment. The protocol: as §1

For the molecule `CN1CCN(c2ccc(Nc3ncc4c(n3)S/C(=C/c3ccc(F)cc3)C(=O)N4)cc2)CC1` [Compound 1a, (E)-7-(4-Fluorobenzylidene)-2-(4-(4-methylpiperazin-1-yl)phenylamino)-5H-pyrimido[4,5-b][1,4]thiazin-6(7H)-one], the IC50 in series [1] and in series [2] was 1 to 10 µM throughout.

For the molecule `CC(=O)Oc1ccc(/C=C2/Sc3nc(Nc4ccc(N5CCN(C)CC5)cc4)ncc3NC2=O)cc1` [Compound 1c, (E)-4-((2-(4-(4-Methylpiperazin-1-yl)phenylamino)-6-oxo-5H-pyrimido[4,5-b][1,4]thiazin-7(6H)-ylidene)methyl)phenyl acetate], the IC50 in series [1] and in series [2] was 1 to 10 µM in each case.

Turning to `COc1ccc(/C=C2/Sc3nc(N(C(C)=O)c4ccc(N5CCN(C)CC5)cc4)ncc3NC2=O)cc1[N+](=O)[O-]` [Compound 1d, (E)-N-(7-(4-methoxy-3-nitrobenzylidene)-6-oxo-6,7-dihydro-5H-pyrimido[4,5-b][1,4]thiazin-2-yl)-N-(4-(4-methylpiperazin-1-yl)phenyl)acetamide], the IC50 in series [1] and in series [2] was 1 to 10 µM each time.

For `O=C1Nc2cnc(N3CCN(c4ccccn4)CC3)nc2S/C1=C/c1ccc([N+](=O)[O-])cc1` [Compound 1e, (E)-7-(4-Nitrobenzylidene)-2-(4-(pyridin-2-yl)piperazin-1-yl)-5H-pyrimido[4,5-b][1,4]thiazin-6(7H)-one], the IC50 in series [1] lay within 10 to 25 µM; in series [2] it was 1 to 10 µM.

On to `CC(=O)N1CCN(c2ccc(Oc3ncc4c(n3)S/C(=C/c3ccc([N+](=O)[O-])cc3)C(=O)N4)cc2)CC1` [Compound 1f, (E)-2-(4-(4-Acetylpiperazin-1-yl)phenoxy)-7-(4-nitrobenzylidene)-5H-pyrimido[4,5-b][1,4]thiazin-6(7H)-one], for which the half-inhibitory concentration (IC50) in series [1] and in series [2] was 10 to 25 µM each time.

In the case of `CC(=O)N(c1ccc(N2CCN(C)CC2)cc1)c1ncc2c(n1)S/C(=C/c1cn(C(C)=O)c3ccccc13)C(=O)N2` [Compound 1g, (E)-N-(7-((1-Acetyl-1H-indol-3-yl)methylene)-6-oxo-6,7-dihydro-5H-pyrimido[4,5-b][1,4]thiazin-2-yl)-N-(4-(4-methylpiperazin-1-yl)phenyl)acetamide], the IC50 in series [1] and in series [2] was 1 to 10 µM each time.

As to `CN1CCN(c2ccc(Nc3ncc4c(n3)S/C(=C/c3ccc(N)cc3)C(=O)N4)cc2)CC1` [Compound 1h, (E)-7-(4-Aminobenzlidene)-2-(4-(4-methylpiperazin-1-yl)phenylamino)-5H-pyrimido[4,5-b][1,4]thiazin-6(7H)-one], the IC50 in series [1] was less than 1 µM; in series [2] it was 1 to 10 µM.

With `CC(=O)Oc1ccc(/C=C2/Sc3nc(N4CCN(c5ccccn5)CC4)ncc3NC2=O)cc1` [Compound 1i, (E)-4-((6-Oxo-2-(4-(pyridin-2-yl)piperazin-1-yl)-5H-pyrimido[4,5-b][1,4]thiazin-7(6H)-ylidene)methyl)phenyl acetate], the half-inhibitory concentration (IC50) in series [1] and in series [2] was 1 to 10 µM throughout.

As for `O=C1Nc2cnc(N3CCN(c4ncccn4)CC3)nc2S/C1=C/c1ccc([N+](=O)[O-])cc1` [Compound 1j, (E)-7-(4-Nitrobenzylidene)-2-(4-(pyrimidin-2-yl)piperazin-1-yl)-5H-pyrimido[4,5-b][1,4]thiazin-6(7H)-one], the IC50 in series [1] was in the range of 50 to 100 µM; in series [2] it was 25 to 50 µM.

With `O=C1Nc2cnc(Nc3ccc(N4CCOCC4)cc3)nc2S/C1=C/c1ccc([N+](=O)[O-])cc1` [Compound 1k, (E)-2-((4-Morpholinophenyl)amino)-7-(4-nitrobenzylidene)-5H-pyrimido[4,5-b][1,4]thiazin-6(7H)-one], the melting point is 302 to 304 °C. Moreover, in series [1], the IC50 lay in the range of 50 to 100 µM. The IC50 in series [2] was 50 to 100 µM.

`CC(=O)N(c1ccc(N2CCN(C)CC2)cc1)c1ncc2c(n1)S/C(=C/c1ccc(C(=O)O)cc1)C(=O)N2` [Compound 1l, (E)-4-((2-(N-(4-(4-Methylpiperazin-1-yl)phenyl)acetamido)-6-oxo-5H-pyrimido[4,5-b][1,4]thiazin-7(6H)-ylidene)methyl)benzoic acid] had a melting point of 326 to 330 °C. For the same molecule, the IC50 in series [1] lay in the range of 50 to 100 µM. The molecule also registered an IC50 in series [2] of 50 to 100 µM.

Take `CC1CCN(c2ccc(Nc3ncc4c(n3)S/C(=C/c3ccc([N+](=O)[O-])cc3)C(=O)N4)cc2)CC1` [Compound 1m, (E)-2-((4-(4-Methylpiperidin-1-yl)phenyl)amino)-7-(4-nitrobenzylidene)-5H-pyrimido[4,5-b][1,4]thiazin-6(7H)-one]: the IC50 in series [1] and in series [2] was 1 to 10 µM each time.

Turning to `CN1CCN(c2ccc(Nc3ncc4c(n3)S/C(=C/c3ccc(C#N)cc3)C(=O)N4)cc2)CC1` [Compound 1n, (E)-4-((2-((4-(4-Methylpiperazin-1-yl)phenyl)amino)-6-oxo-5H-pyrimido[4,5-b][1,4]thiazin-7(6H)-ylidene)methyl)benzonitrile], the melting point was in the range of 274 to 276 °C. In series [1], this molecule returned an IC50 of less than 1 µM. For the same molecule, the IC50 in series [2] is less than 1 µM.

In turn, `CN1CCN(c2ccc(Nc3ncc4c(n3)S/C(=C/c3ccc(OCc5ccccc5)cc3)C(=O)N4)cc2)CC1` [Compound 1o, (E)-7-(4-(Benzyloxy)benzylidene)-2-((4-(4-methylpiperazin-1-yl)pheny)amino)-5H-pyrimido[4,5-b][1,4]thiazin-6(7H)-one] yielded a melting point of 238 to 240 °C. This molecule also registered an IC50 in series [1] of less than 1 µM. This molecule yielded an IC50 in series [2] of less than 1 µM.

In turn, `CN1CCN(c2ccc(Nc3ncc4c(n3)S/C(=C/c3ccc(C(N)=O)cc3)C(=O)N4)cc2)CC1` [Compound 1p, (E)-4-((2-((4-(4-Methylpiperazin-1-yl)phenyl)amino)-6-oxo-5H-pyrimido[4,5-b][1,4]thiazin-7(6H)-ylidene)methyl)benzamide] came in with a melting point of 294 to 298 °C. The concentration for half-maximal inhibition (IC50) in series [1] lay in the range of 1 to 10 µM. In series [2], this molecule gave an IC50 of 1 to 10 µM.

The molecule `CN1CCN(c2ccc(Nc3ncc4c(n3)S/C(=C/c3ccc(O)cc3)C(=O)N4)cc2)CC1` [Compound 1q, (E)-7-(4-Hydroxybenzylidene)-2-((4-(4-methylpiperazin-1-yl)phenyl)amino)-5H-pyrimido[4,5-b][1,4]thiazin-6(7H)-one] had a melting point of 312 to 314 °C. In series [1], this molecule gave an IC50 of less than 1 µM. The molecule also returned a half-maximal inhibitory concentration (IC50) in series [2] of less than 1 µM.

As to `CN1CCN(c2ccc(Nc3ncc4c(n3)SCC(=O)N4)cc2)CC1` [Compound 4a, 2-(4-(4-methylpiperazin-1-yl)phenylamino)-5H-pyrimido[4,5-b][1,4]thiazin-6(7H)-one], the 50% inhibitory concentration (IC50) was in the range of 1 to 10 µM in series [1] and 10 to 25 µM in series [2].

`O=C1CSc2nc(SCc3c(Cl)cccc3Cl)ncc2N1` [Compound 4d, 2-(2,6-Dichlorobenzylthio)-5H-pyrimido[4,5-b][1,4]thiazin-6(7H)-one] gave a melting point of 242 to 244 °C. Moreover, the IC50 in series [1] was 25 to 50 µM. In series [2], the IC50 was 25 to 50 µM.
